Measured values as given in US8946247B2, “Quinazoline carboxamide azetidines” (Merck Patent GmbH, priority 2010, dated 2015).
pIC50: −log10 of the molar value.

Assays:
P70S6K (T412E mutant) = target: T1, P70S6K (T412E mutant) (Homo sapiens, UniProt P23443, T412E); test: p70S6K Enzyme Assay; assay type: biochemical; settings: 24 μM ATP, 90 min at 25° C., Caliper mobility shift
T1 construct: purchased Millipore
Description: p70S6K inhibitor compounds were diluted and plated in 96 well plates. A reaction mixture including the following components were then added to the compound plate to initiate the enzyme reaction; P70S6K (3 nM, T412E mutant, Millipore) was mixed with 24 μM ATP in an assay buffer containing 100 mM Hepes (pH 7.5), 5 mM MgCl2, 1 mM DTT, 0.015% Brij and 1 μM of the substrate peptide FITC-AHA-AKRRRLSSLRA-OH (derived from the S6 ribosomal protein sequence, FITC=fluorescein isothiocyanate, AHA=6-aminohexanoic acid). The reaction was incubated for 90 min at 25° C., before the addition of 10 mM EDTA to stop the reaction. The proportion of substrate and product (phosphorylated) peptide was analysed on a Caliper Life Sciences Lab Chip 3000, using a pressure of −1.4 psi, and upstream and downstream voltages of −3000 and −700 respectively. Product peaks were resolved before substrate peaks on the resulting chromatograms.
To assess the inhibitory potential of the compounds, IC50-values were determined, as shown in Chemical Synthesis section above.

pS6 MDA-MB-468 = test: Cellular Activity Assay (phospho-S6 in MDA-MB-468 cells); assay type: cell-based; settings: Homo sapiens, 2 hr compound incubation, percent pS6-positive cells; for IC50: head printed in uM
Description: MDA-MB-468 cells were grown in DMEM containing glutamine supplemented with 10% Fetal Bovine Serum (FBS) and 1× antibiotics. Cells were maintained by splitting 1:3 twice a week.
For the assay, cells were plated the evening before at a density of 4000 cells per well in black polyD lysine coated 384 well plates. Cells were incubated overnight (16 to 20 hours) in growth media. Compounds at an appropriate concentration were added to the wells and incubated for 2 hr. Controls included: i) no primary, ii) rabbit isotype, iii) propidium iodide (red) only and iv) anti-phospho-S6 antibody alone (green only). Cells were then fixed in 4% paraformaldehyde for 15-20 minutes at room temperature, then washed 3×80 ul with PBS.
50 ul 10% normal goat serum (NGS) with 0.2% triton X 100 in PBS were added and incubated for 30 to 60 minutes at room temperature. Anti-phospho-S6 antibody was diluted 1:800 2% with NGS in 0.2% TritonX-100 and 30 ul added to appropriate wells. The wells were incubated overnight at 4 degrees Celsius.
Then the wells were washed with 3×80 uL PBS. The secondary green fluorescence labeled antibody (Alexa Fluor® 488 F(ab′)2 fragment goat Anti-rabbit IgG (H+L)), was diluted 1:1500 in 2% NGS with 0.2% TritonX-100, and 30 ul were added to the appropriate wells which were then incubated in the dark at room temperature for 60 minutes. Then they were washed with 4×80 ul PBS. Propidium iodide (1.5 mM stock) was diluted 1:1000 in PBS, and 50 ul were added to the appropriate wells and incubated for 30 minutes at room temperature in the dark. Propidium iodide was not washed out. Plates were read on the Acumen Explorer.
Red and green cell populations were determined using controls. The number of green cells (pS6) and total number of cells (red) were then counted and the percentage of green cells was calculated. Percent positive cell data was plotted on a log scale against concentration of compounds and IC50 values were calculated from dose response curves.

Akt1 = target: T2, Akt1 (Homo sapiens, UniProt P31749); test: AKT/PKB Kinase Assay; assay type: biochemical; settings: His-AKT (Full Length), 160 uM ATP, 90 min at 25 C
T2 construct: 0.1 ng/ul His-AKT (Full Length), (Invitrogen, Part #P2999, Lot #641228C); His; purchased Invitrogen P2999
T2 sequence (P31749 whole entry): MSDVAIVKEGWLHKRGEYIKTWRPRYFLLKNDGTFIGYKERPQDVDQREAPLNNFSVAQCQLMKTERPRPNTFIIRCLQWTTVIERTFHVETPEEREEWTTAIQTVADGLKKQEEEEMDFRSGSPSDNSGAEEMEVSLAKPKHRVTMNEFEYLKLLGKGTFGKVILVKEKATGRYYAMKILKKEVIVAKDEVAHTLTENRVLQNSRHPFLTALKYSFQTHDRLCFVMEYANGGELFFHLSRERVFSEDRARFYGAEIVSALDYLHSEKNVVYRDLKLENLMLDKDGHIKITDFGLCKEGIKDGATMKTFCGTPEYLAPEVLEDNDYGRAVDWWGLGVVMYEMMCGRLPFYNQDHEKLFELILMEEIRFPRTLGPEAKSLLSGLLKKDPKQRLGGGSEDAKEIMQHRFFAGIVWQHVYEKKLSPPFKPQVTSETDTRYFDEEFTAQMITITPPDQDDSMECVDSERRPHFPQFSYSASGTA
Description: In order to measure AKT inhibition in the Caliper Life Sciences LC3000, a TTP Mosquito liquid handling instrument was used to place 125 nl of the appropriate concentration of inhibitor in 100% DMSO (for a dose response curve calculation) into each well of a 384-well plate. To this reaction components were added to a final volume of 12.5 ul: • 0.1 ng/ul His-AKT (Full Length), (Invitrogen, Part #P2999, Lot #641228C) • 160 uM ATP (Fluke, 02055) • 1 mM DTT (Sigma, D0632) • 1 mM MgCl2 (Sigma, M1028) • 1 uM substrate peptide (sequence FITC-AHA-GRPRTSSFAEG-NH2), synthesized by Tufts Peptide Synthesis service. • 100 mM HEPES pH 7.5 (Calbiochem, 391338) • 0.015% Brij-35 (Sigma, B4184)
(§1) The reaction was incubated for 90 min at 25 C, and then stopped by the addition of 70 ul of Stop buffer (100 mM HEPES pH 7.5, 0.015% Brij-35, 10 mM EDTA (Sigma, E7889)).
The plate was read on a Caliper LC 3000 in an Off-Chip mobility shift assay format, using the following parameters for a 12-sipper chip: screening pressure −2.3 psi, upstream voltage −500, and downstream voltage −3000.
These conditions cause unphosphorylated substrate and phosphorylated product peptide to resolve as separate peaks allowing direct measurement of percentage of conversion of substrate to product. The percent conversion was plotted against concentration of inhibitor to produce a sigmoidal dose response curve, from which an IC50 was calculated.

Aurora B = target: T3, Aurora B (Homo sapiens, UniProt Q96GD4); test: Aurora B Kinase Assay; assay type: biochemical; settings: for pIC50: GST-Aurora B (1-344), 10 uM ATP, 90 min at 25 C
T3 construct: GST-Aurora B (1-344 amino acids); GST (N); purchased Carna Biosciences 05-102
T3 sequence (Q96GD4 whole entry, the tested form may be a part): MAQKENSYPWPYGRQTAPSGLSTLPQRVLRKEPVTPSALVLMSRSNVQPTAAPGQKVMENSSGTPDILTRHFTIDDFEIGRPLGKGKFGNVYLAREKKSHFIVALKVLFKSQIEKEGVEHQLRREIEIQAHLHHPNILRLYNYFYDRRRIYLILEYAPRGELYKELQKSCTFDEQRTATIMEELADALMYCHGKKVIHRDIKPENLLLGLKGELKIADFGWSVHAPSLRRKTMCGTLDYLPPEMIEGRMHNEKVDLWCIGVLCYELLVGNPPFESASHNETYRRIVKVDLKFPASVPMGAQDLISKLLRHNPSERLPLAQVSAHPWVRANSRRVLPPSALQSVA
T3 sequence (Q9NQS7 803-918 partner limits assumed): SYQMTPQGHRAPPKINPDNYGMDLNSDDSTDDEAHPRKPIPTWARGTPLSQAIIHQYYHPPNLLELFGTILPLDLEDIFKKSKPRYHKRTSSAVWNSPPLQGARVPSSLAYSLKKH
Description: To measure inhibitor activity of Aurora B inhibitors in the Caliper Life Sciences LC3000, a TTP Mosquito liquid handling instrument was used to place 0.25 ul of the appropriate concentration of inhibitor in 100% DMSO (for a dose response curve calculation) into each well of a 384-well plate. To this reaction components was added to a final volume of 25 ul: • 0.1 ng/ul GST-Aurora B (1-344 amino acids), (Carna Biosciences 05-102. N-terminal GST fusion with His tagged INCEP, accession number Q96GD4). • 10 uM ATP (Fluka, 02055) • 1 mM DTT (Sigma, D0632) • 1 mM MgCl2 (Sigma, M1028) • 1 uM substrate peptide (sequence FITC-LRRASLG-(CONH2), synthesized by Tufts Peptide Synthesis service. • 100 mM HEPES pH 7.5 (Calbiochem, 391338) • 0.015% Brij-35 (Sigma, B4184)
as §1
The plate was read on a Caliper LC 3000 in an Off-Chip mobility shift assay format, using the following parameters for a 12-sipper chip: screening pressure −1.8 psi, upstream voltage −2700, downstream voltage −1000. These conditions caused unphosphorylated substrate and phosphorylated product peptide to resolve as separate peaks allowing direct measurement of percentage of conversion of substrate to product. The percent conversion was plotted against concentration of inhibitor to produce a sigmoidal dose response curve, from which an IC50 was calculated using XLFit for Microsoft Excel.

T1 sequence (P23443 1-421 T412E limits assumed): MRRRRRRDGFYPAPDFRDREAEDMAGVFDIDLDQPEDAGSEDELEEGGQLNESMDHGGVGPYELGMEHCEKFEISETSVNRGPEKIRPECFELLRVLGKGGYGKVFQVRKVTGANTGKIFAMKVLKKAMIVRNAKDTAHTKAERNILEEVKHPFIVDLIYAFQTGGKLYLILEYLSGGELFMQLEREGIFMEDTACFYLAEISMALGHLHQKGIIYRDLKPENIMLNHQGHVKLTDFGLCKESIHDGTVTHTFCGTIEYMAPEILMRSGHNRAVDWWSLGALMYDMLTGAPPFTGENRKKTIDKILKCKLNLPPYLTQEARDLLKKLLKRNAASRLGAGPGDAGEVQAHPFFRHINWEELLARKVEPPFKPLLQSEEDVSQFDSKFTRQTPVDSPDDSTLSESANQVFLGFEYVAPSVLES

| pIC50 (P70S6K (T412E mutant)) | pIC50 (pS6 MDA-MB-468) | pIC50 (Akt1) | pIC50 (Aurora B) | Aurora B/p70S6K inhibitory ratio (Aurora B; ratio of Aurora B to p70S6K inhibition) | IC50 (pS6 MDA-MB-468) [µM] | SMILES |
| --- | --- | --- | --- | --- | --- | --- |
| 8.52 | 6.41 | 7.96 | 6.92 | – | – | CC1CCN1C[C@@H](Nc1ncnc2c(C(N)=O)cccc12)c1ccc(F)c(C(F)(F)F)c1 (stereo partly drawn) [Example 48, 4-[(S)-1-(4-Fluoro-3-trifluoromethyl-phenyl)-2-(2-methyl-azetidin-1-yl)-ethylamino]-quinazoline-8-carboxylic acid amide] |
| 6.40 | – | – | – | – | > 10 | CC(C)Oc1ccc([C@@H](CN2CCC2)Nc2ncnc3c(C(N)=O)cccc23)cc1 [Example 36, 4-[(S)-2-Azetidin-1-yl-1-(4-isopropoxyphenyl)-ethylamino]-quinazoline-8-carboxylic acid amide] |
| 8.77 | 7.39 | 8.14 | 7.12 | – | – | NC(=O)c1cccc2c(N[C@H](CN3CCC3)c3ccc(F)c(C(F)F)c3)ncnc12 [Example 44, 4-[(S)-2-Azetidin-1-yl-1-(3-difluoromethyl-4-fluoro-phenyl)-ethylamino]-quinazoline-8-carboxylic acid amide] |
| 6.89 | – | – | < 9.00 | – | > 10 | COc1cc([C@@H](CN2CCC2)Nc2ncnc3c(C(N)=O)cccc23)cc(F)c1F [Example 40, 4-[(S)-2-Azetidin-1-yl-1-(3,4-difluoro-5-methoxyphenyl)-ethylamino]-quinazoline-8-carboxylic acid amide] |
| 9.00 | 7.19 | – | 7.27 | – | – | NC(=O)c1cc(F)cc2c(N[C@H](CN3CCC3)c3ccc(Cl)c(F)c3)ncnc12 [Example 51, 4-[(S)-2-Azetidin-1-yl-1-(4-chloro-3-fluoro-phenyl)-ethylamino]-6-fluoro-quinazoline-8-carboxylic acid amide] |
| 9.10 | 7.20 | – | – | – | – | CC(C)c1ccc([C@@H](CN2CCC2)Nc2ncnc3c(C(N)=O)cccc23)cc1 [Example 34, 4-[(S)-2-Azetidin-1-yl-1-(4-isopropylphenyl)-ethylamino]-quinazoline-8-carboxylic acid amide] |
| 8.07 | 6.24 | – | – | – | – | NC(=O)c1ccc([C@@H](CN2CCC2)Nc2ncnc3c(C(N)=O)cccc23)cc1 [Example 35, 4-[(S)-2-Azetidin-1-yl-1-(4-carbamoylphenyl)-ethylamino]-quinazoline-8-carboxylic acid amide] |
| 8.34 | – | – | 6.68 | – | – | NC(=O)c1cccc2c(N[C@H](CN3CC(O)C3)c3ccc(F)c(F)c3)ncnc12 [Example 33, 4-[(S)-1-(3,4-Difluoro-phenyl)-2-(3-hydroxy-azetidin-1-yl)-ethylamino]-quinazoline-8-carboxylic acid amide] |

More lines, now with the values behind:

| SMILES | pIC50 (P70S6K (T412E mutant)) | pIC50 (pS6 MDA-MB-468) | pIC50 (Akt1) | pIC50 (Aurora B) | Aurora B/p70S6K inhibitory ratio (Aurora B; ratio of Aurora B to p70S6K inhibition) | IC50 (pS6 MDA-MB-468) [µM] |
| --- | --- | --- | --- | --- | --- | --- |
| NC(=O)c1cccc2c(N[C@H](CN3CCC3)c3cccc(F)c3)ncnc12 [Example 1, 4-[(S)-2-Azetidin-1-yl-1-(3-fluorophenyl)-ethylamino]-quinazoline-8-carboxylic acid amide] | 8.25 | 7.15 | 7.66 | 7.35 | 28 | – |
| NC(=O)c1cccc2c(N[C@H](CN3CC(F)(F)C3)c3ccc(Cl)cc3)ncnc12 [Example 32, 4-[(S)-1-(4-Chloro-phenyl)-2-(3,3-difluoro-azetidin-1-yl)-ethylamino]-quinazoline-8-carboxylic acid amide] | 7.38 | < 8.00 | – | 6.47 | – | – |
| NC(=O)c1cccc2c(N[C@H](CN3CCC3)c3ccc(F)c(C(F)(F)F)c3)ncnc12 [Example 31, 4-[(S)-2-Azetidin-1-yl-1-(4-fluoro-3-trifluoromethyl-phenyl)-ethylamino]-quinazoline-8-carboxylic acid amide] | 8.62 | 7.55 | 8.14 | 6.55 | – | – |
| NC(=O)c1cccc2c(N[C@H](CN3CCC3)c3cc(F)cc(C(F)(F)F)c3)ncnc12 [Example 6, 4-[(S)-2-Azetidin-1-yl-1-(3-fluoro-5-trifluoromethylphenyl)-ethylamino]-quinazoline-8-carboxylic acid amide] | 8.64 | 7.01 | 8.04 | 6.57 | – | – |
| NC(=O)c1cccc2c(N[C@H](CN3CCC3)c3ccc(Cl)c(F)c3)ncnc12 [Example 29, 4-[(S)-2-Azetidin-1-yl-1-(4-chloro-3-fluoro-phenyl)-ethylamino]-quinazoline-8-carboxylic acid amide] | 8.80 | 7.72 | 8.11 | – | – | – |
| NC(=O)c1cccc2c(N[C@H](CN3CC(F)C3)c3cccc(Cl)c3)ncnc12 [Example 22, 4-[(S)-2-(3-Fluoro-azetidin-1-yl)-1-(3-chlorophenyl)-ethylamino]-quinazoline-8-carboxylic acid amide] | 8.62 | 6.49 | 7.14 | – | – | – |
| NC(=O)c1cccc2c(N[C@H](CN3CCC3)c3ccc(OC(F)(F)F)c(Cl)c3)ncnc12 [Example 28, 4-[(S)-2-Azetidin-1-yl-1-(3-chloro-4-trifluoromethoxy-phenyl)-ethylamino]-quinazoline-8-carboxylic acid amide] | 8.62 | 7.21 | – | 6.16 | – | – |
| NC(=O)c1cccc2c(N[C@H](CN3CCC3)c3ccccc3)ncnc12 [Example 21, 4-[(S)-2-Azetidin-1-yl-1-phenyl-ethylamino]-quinazoline-8-carboxylic acid amide] | 7.96 | 5.51 | – | – | – | – |
